Consider 1 compound from ChEMBL document CHEMBL3286276, “Novel estrogen receptor (ER) modulators containing various hydrophobic bent-core structures” (Bioorg Med Chem, 2014).

Assay [1] has as its target T1, Estrogen receptor (Homo sapiens) (UniProt P03372).
T1 sequence (whole entry): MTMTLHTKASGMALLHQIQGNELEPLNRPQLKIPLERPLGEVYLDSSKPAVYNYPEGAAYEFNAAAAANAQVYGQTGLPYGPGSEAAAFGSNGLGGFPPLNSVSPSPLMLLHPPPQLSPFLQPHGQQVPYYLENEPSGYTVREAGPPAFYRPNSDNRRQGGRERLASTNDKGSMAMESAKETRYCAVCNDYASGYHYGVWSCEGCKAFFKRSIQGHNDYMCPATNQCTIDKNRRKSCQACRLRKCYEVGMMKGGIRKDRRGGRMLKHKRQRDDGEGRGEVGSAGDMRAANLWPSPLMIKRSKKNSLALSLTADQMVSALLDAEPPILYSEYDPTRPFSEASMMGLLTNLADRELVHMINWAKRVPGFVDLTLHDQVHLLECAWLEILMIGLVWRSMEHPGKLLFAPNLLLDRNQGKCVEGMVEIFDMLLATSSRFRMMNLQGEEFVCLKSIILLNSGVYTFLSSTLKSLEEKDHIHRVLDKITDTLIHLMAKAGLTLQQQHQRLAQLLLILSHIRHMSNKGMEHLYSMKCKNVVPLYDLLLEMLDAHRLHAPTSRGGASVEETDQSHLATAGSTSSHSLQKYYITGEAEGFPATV
Nature of the assay: Displacement of [6,7-3H]17beta-estradiol from human recombinant estrogen receptor-alpha after 18 hrs by liquid scintillation counting analysis.

Assay [2] deals with T1, Estrogen receptor (Homo sapiens). Nature of the assay: Agonist activity at estrogen receptor in human MCF7 cells assessed as induction of cell proliferation at 1 x 10^-13 to 1 x 10^-5 M after 5 days by WST-8 assay relative to estradiol. Format: cell-based.

The structures appear in SMILES notation.

For the compound `CN(C)CCOc1ccc(C23CC4CC(CC(c5ccc(O)cc5)(C4)C2)C3)cc1`, the inhibition entry in assay [1] was “Dose-dependent effect”. In addition, the Emax in assay [2] is 17%.
